Reference: ChEMBL document CHEMBL3992492, “Sulfoximines from a Medicinal Chemist's Perspective: Physicochemical and in vitro Parameters Relevant for Drug Discovery” (Eur J Med Chem, 2017)
Converted amounts (≈) assume the structure as drawn.

Assays:
physchem [1] = conditions: octanol/water, pH 10
physchem [2] = conditions: aqueous
physchem [3] = conditions: acetonitrile/water mixture
Description: Solubility of the compound in acetonitrile/water mixture at 10 mM measured after 24 by HPLC-UV method

in vitro [4] = conditions: PAMPA, pH 7.4
Description: Apparent permeability of the compound at pH 7.4 by PAMPA

in vitro [5] = conditions: human, liver microsomes
Description: Half life in human liver microsomes at 1 uM in presence of NADPH by LC-MS/MS method

in vitro [6] = conditions: human, liver microsomes; remark: listed apart in the source
[7] = Apparent partition coefficient, log P of the compound in n-octanol/aqueous mixture by potentiometric titration method; type: physicochemical
[8] = Drug degradation in pH >10 NH3 after 7 days by HPLC method
[9] = Drug degradation in pH <1 HCl after 7 days by HPLC method
[10] = Dissociation constant, pKb of the compound in aqueous/organic mixture at pH 2 to 12 by potentiometric titration method; type: physicochemical; conditions: buffer

| SMILES | logP (physchem [1]) | solubility thermodynamic (physchem [2]) [µg/mL] | solubility at 10000 µM (physchem [3]) [µg/mL] | Papp (in vitro [4]) [×10⁻⁶ cm/s] | half-life at 1 µM (in vitro [5]) [h] | hepatic extraction ratio at 1 µM (in vitro [6]) | logP [7] | Drug degradation [8] [%] | Drug degradation [9] [%] | pKb [10] |
| --- | --- | --- | --- | --- | --- | --- | --- | --- | --- | --- |
| CC(C)(C)NC(=O)c1ccc(C(F)(F)F)cc1 | 2.6 | 10 (≈ 40.8 µM) | 14 (≈ 57.1 µM) | 7.1 | > 2.17 | < 0.23 | – | – | – | – |
| CS(=O)(=O)c1ccc(C(F)(F)F)cc1 | 1.5 | 300 (≈ 1340 µM) | > 47 | – | – | – | – | – | – | – |
| O=S1(=Nc2ccc(C(F)(F)F)cc2)CCCCC1 | 2.8 | 70 (≈ 252 µM) | 51 (≈ 184 µM) | 7.7 | 0.767 | 0.46 | 2.8 | < 10 | < 10 | – |
| O=S1(=Nc2ccncc2)CCCCC1 | – | – | 42 (≈ 200 µM) | 5.7 | > 2.17 | < 0.23 | -2.6 | – | – | 7.2 |
| CS(C)(=N)=NC(=O)Nc1ccc(C(F)(F)F)cc1 | 0.4 | 500 (≈ 1790 µM) | > 68 | 3.3 | – | – | – | < 10 | < 10 | 3.3 |
| CCS(C)(=O)=Nc1ccc(C(F)(F)F)cc1 (configuration not stated) | – | – | > 51 | 7.7 | > 2.17 | < 0.23 | 2 | – | – | – |
| CN(C)S(C)(=O)=Nc1ccc(C(F)(F)F)cc1 (configuration not stated) | 2.4 | 70 (≈ 263 µM) | 41 (≈ 154 µM) | 7.6 | 0.7 | 0.48 | – | – | – | – |
| CS(=O)(=Nc1ccc(C(F)(F)F)cc1)C1CCOCC1 (configuration not stated) | – | – | 46 (≈ 150 µM) | 9.6 | > 2.17 | < 0.23 | 2.5 | – | – | – |
| C[S@](=O)(=Nc1ccc(C(F)(F)F)cc1)c1ccccc1 | – | – | 20 (≈ 66.8 µM) | 2.5 | > 2.17 | < 0.23 | 3.7 | – | – | – |
| C[S@@](=O)(=Nc1ccc(C(F)(F)F)cc1)c1ccccc1 | – | – | 17 (≈ 56.8 µM) | 3.5 | > 2.17 | < 0.23 | 3.7 | – | – | – |
| CC(C)(C)S(C)(=O)=Nc1ccc(C(F)(F)F)cc1 (configuration not stated) | – | – | 22 (≈ 78.8 µM) | – | – | – | 3.1 | – | – | – |
| CN=S(=O)(c1ccc(C(F)(F)F)cc1)N(C)C (configuration not stated) | 1.5 | 1200 (≈ 4510 µM) | – | 9.5 | > 2.17 | < 0.23 | – | 10 | < 10 | – |
| CS(C)(=O)=NC(=O)c1ccc(C(F)(F)F)cc1 | 1.8 | 300 (≈ 1130 µM) | > 53 | 11 | 1.03 | 0.39 | – | < 10 | > 90 | – |
| CC(C)(C)OC(=O)c1ccc(C(F)(F)F)cc1 | 4.8 | 20 (≈ 81.2 µM) | 7 (≈ 28.4 µM) | – | – | – | – | – | – | – |
| CS(C)(=O)=Nc1ccc(C(F)(F)F)cc1 | 1.4 | 900 (≈ 3790 µM) | > 50 | 8.2 | > 2.17 | < 0.23 | 1.4 | 20 | 13 | – |
| CN(c1ccc(C(F)(F)F)cc1)S(C)(=O)=O | 2.5 | 200 (≈ 790 µM) | 46 (≈ 182 µM) | – | – | – | – | – | – | – |
| O=S1(=Nc2ccc(F)cc2)CCCCC1 | – | > 1000 | > 46 | 9.5 | 2 | 0.25 | 0.7 | – | – | – |
| CS(=O)(=O)Oc1ccc(C(F)(F)F)cc1 | 4.3 | 300 (≈ 1250 µM) | – | – | – | – | – | – | – | – |
| CS(=O)(=Nc1ccc(C(F)(F)F)cc1)C1CC1 (configuration not stated) | – | – | 40 (≈ 152 µM) | 7.8 | > 2.17 | < 0.23 | 2.3 | – | – | – |
| C[S+]([O-])Cc1ccc(C(F)(F)F)cc1 (configuration not stated) | -0.5 | 4300 (≈ 19300 µM) | > 51 | 6.3 | 1.83 | 0.25 | – | – | – | – |
| COc1ccc(N=S2(=O)CCCCC2)cc1 | – | 900 (≈ 3760 µM) | > 51 | 9.1 | > 2.17 | < 0.23 | -0.1 | – | – | – |
| CC(=O)N(C)c1ccc(C(F)(F)F)cc1 | 0.8 | 1300 (≈ 5990 µM) | > 52 | 9.7 | – | – | – | – | – | – |
| O=S1(=Nc2ccc(C(F)(F)F)cc2)CCCC1 | – | 6000 (≈ 22800 µM) | 50 (≈ 190 µM) | 8.7 | 1.83 | 0.26 | 2.4 | – | – | – |
| CN=S(=O)(NC)c1ccc(C(F)(F)F)cc1 (configuration not stated) | 0.4 | 1200 (≈ 4760 µM) | – | 9.8 | > 2.17 | < 0.23 | – | < 10 | < 10 | – |

| SMILES | logP (physchem [1]) | solubility thermodynamic (physchem [2]) [µg/mL] | solubility at 10000 µM (physchem [3]) [µg/mL] | Papp (in vitro [4]) [×10⁻⁶ cm/s] | half-life at 1 µM (in vitro [5]) [h] | hepatic extraction ratio at 1 µM (in vitro [6]) | logP [7] | Drug degradation [8] [%] | Drug degradation [9] [%] | pKb [10] |
| --- | --- | --- | --- | --- | --- | --- | --- | --- | --- | --- |
| CS(=O)(=Nc1ccc(C(F)(F)F)cc1)c1ccncc1 (configuration not stated) | – | – | 44 (≈ 147 µM) | 6.2 | 0.933 | 0.41 | 2.6 | – | – | – |
| CS(=O)(=O)Cc1ccc(C(F)(F)F)cc1 | 1.3 | 400 (≈ 1680 µM) | – | – | – | – | – | – | – | – |
| CN(C)S(=O)(=O)c1ccc(C(F)(F)F)cc1 | 2.7 | 90 (≈ 355 µM) | 47 (≈ 186 µM) | – | – | – | – | – | – | – |
| O=S1(=Nc2cccnc2)CCCCC1 | – | – | > 75 | 5.8 | 0.133 | 0.82 | -2.7 | – | – | 4.8 |
| CC(C)(C)NC(=O)Nc1ccc(C(F)(F)F)cc1 | 3.4 | 20 (≈ 76.8 µM) | < 1 | 5.1 | > 2.17 | < 0.23 | – | – | – | – |
| O=S1(=Nc2ccc(C(F)(F)F)cc2)CCNCC1 | – | 2300 (≈ 8260 µM) | > 57 | 8.3 | 1.83 | 0.25 | 0.9 | – | – | 5.2 |
| CS(=O)(=Nc1ccc(C(F)(F)F)cc1)c1cccnc1 (configuration not stated) | – | – | 47 (≈ 157 µM) | 8.4 | > 2.17 | < 0.23 | 2.5 | – | – | – |
| CNC(=O)c1ccc(C(F)(F)F)cc1 | 0.5 | 200 (≈ 984 µM) | – | 5.7 | > 2.17 | < 0.23 | – | – | – | – |
| O=S1(=Nc2ccccc2)CCCCC1 | – | – | 37 (≈ 177 µM) | 9.5 | > 2.17 | < 0.23 | -0.1 | – | – | – |
| N#Cc1ccc(N=S2(=O)CCCCC2)cc1 | – | – | 45 (≈ 192 µM) | 7.9 | > 2.17 | < 0.23 | 1.1 | – | – | – |
| Cn1cc(N=S2(=O)CCCCC2)cn1 | – | – | 39 (≈ 183 µM) | 3.2 | > 2.17 | < 0.23 | -3.9 | – | – | – |
| CC(=O)Nc1ccc(C(F)(F)F)cc1 | 1.8 | 100 (≈ 492 µM) | 10 (≈ 49.2 µM) | 6 | 1 | 0.39 | – | – | – | – |
| CS(C)(=O)=NC(=O)Nc1ccc(C(F)(F)F)cc1 | 1.6 | 40 (≈ 143 µM) | 44 (≈ 157 µM) | 4.3 | > 2.17 | < 0.23 | – | 14 | < 10 | – |
| O=S1(=Nc2cc(C(F)(F)F)cc(C(F)(F)F)c2)CCCCC1 | – | – | < 1 | 3.3 | 0.1 | 0.87 | 4 | – | – | – |
| C[S+]([O-])c1ccc(C(F)(F)F)cc1 (configuration not stated) | -0.3 | 11100 (≈ 53300 µM) | > 46 | – | – | – | – | – | – | – |
| CC(C)(C)OC(=O)Nc1ccc(C(F)(F)F)cc1 | 4.4 | < 1 | < 1 | 0.8 | – | – | – | – | – | – |
| O=S1(=Nc2ccc(C(F)(F)F)cc2)CCC1 | – | – | 48 (≈ 193 µM) | 9.6 | > 2.17 | < 0.23 | 2.5 | – | – | – |
| CS(C)(=N)=NC(=O)c1ccc(C(F)(F)F)cc1 | 0.4 | 8100 (≈ 30700 µM) | – | 9.2 | > 2.17 | < 0.23 | – | 34 | > 90 | – |
| O=S1(=Nc2ccccc2Cl)CCCCC1 | – | 500 (≈ 2050 µM) | > 50 | 12 | 0.467 | 0.58 | 2 | – | – | – |
| O=S1(=Nc2ccc(C(F)(F)F)cc2)CCOCC1 | – | 300 (≈ 1070 µM) | > 57 | 8 | > 2.17 | < 0.23 | 2.7 | – | – | – |
| NC(=O)c1ccc(C(F)(F)F)cc1 | 0.3 | 300 (≈ 1590 µM) | > 44 | – | – | – | – | – | – | – |
| CNS(C)(=O)=Nc1ccc(C(F)(F)F)cc1 (configuration not stated) | 1.6 | 800 (≈ 3170 µM) | > 54 | 5 | > 2.17 | < 0.23 | – | – | – | – |
| CN=S(C)(=O)c1ccc(C(F)(F)F)cc1 (configuration not stated) | 0.1 | 2400 (≈ 10100 µM) | > 54 | 11 | > 2.17 | < 0.23 | – | < 10 | < 10 | – |
